The text below walks through data of patent US4837215A, “Penem derivatives” (Farmitalia Carlo Erba, priority 1985, dated 1989).

What all share (format): cell-based
Assay [1] concerns Klebsiella aerogenes 1082E (β-lact.+). Description: Antibacterial in vitro activity (MIC), Klebsiella aerogenes 1082E (β-lact.+). The text has this:
(§1) Comparison between the antibacterial in vitro
(§2) activity (MIC, μg/ml) of compounds (1)
(§3) and (31) and a reference drug: Moxalactam

The subject of assay [2] is Streptococcus pyrogenes ATCC 12384. Description: Antibacterial in vitro activity (MIC), Streptococcus pyrogenes ATCC 12384. As to conditions: ATCC12384.
Description: as §1, §2, §3

Assay [3] concerns Staphylococcus aureus Smith ATCC 13709. Description: Antibacterial in vitro activity (MIC), Staphylococcus aureus Smith ATCC 13709. As to conditions: ATCC13709.
Description: as §1, §2, §3

Assay [4] deals with Citrobacter freundii ATCC 8090. Description: Antibacterial in vitro activity (MIC), Citrobacter freundii ATCC 8090. As to conditions: ATCC8090.
Description: as §1, §2, §3

Assay [5] has as its system Enterobacter cloacae P 99 (β-lact.+). Description: Antibacterial in vitro activity (MIC), Enterobacter cloacae P 99 (β-lact.+).
Description: as §1, §2, §3

Assay [6] has as its system Staphylococcus aureus 209 P. Kind of assay: Antibacterial in vitro activity (MIC), Staphylococcus aureus 209 P.
Description: as §1, §2, §3

In assay [7] the test system is Shigella flexneri ATCC 11836. Kind of assay: Antibacterial in vitro activity (MIC), Shigella flexneri ATCC 11836. The following applies: ATCC11836.
Description: as §1, §2, §3

The test system of assay [8] is Escherichia coli B Cef. R (β-lact.+). Kind of assay: Antibacterial in vitro activity (MIC), Escherichia coli B Cef. R (β-lact.+).
Description: as §1, §2, §3

The subject of assay [9] is Escherichia coli 026/B6 Cef R. Kind of assay: Antibacterial in vitro activity (MIC), Escherichia coli 026/B6 Cef R. The following applies: 026/B6CEFR.
Description: as §1, §2, §3

Assay [10] concerns Pseudomonas aeruginosa (6 strains). Kind of assay: Antibacterial in vitro activity (MIC), Pseudomonas aeruginosa (6 strains).
Description: as §1, §2, §3

The subject of a further assay is Acinobacter. Kind of assay: Antibacterial in vitro activity (MIC), Acinobacter.
Description: as §1, §2, §3

The mark [11] stands for this setting: Klebsiella aerogenes 1082E (β-lact.+), read-out: MIC.
The mark [12] stands for this setting: Enterobacter cloacae P 99 (β-lact.+), read-out: MIC.
Setting [13] is: Escherichia coli B Cef. R (β-lact.+), read-out: MIC.

≈ marks a conversion by molar mass, not a printed value. Like-named read-outs stand apart in the source and are kept apart here.

The MIC is the lowest concentration found to suppress growth.

Take `C[C@@H](O)[C@H]1C(=O)N2C(C(=O)[O-])=C(Oc3ccc(C[n+]4ccccc4)cc3)S[C@H]12` [Compound 31]: the MIC in [1] (Klebsiella aerogenes) turned out to be 1.56 µg/mL (≈ 3.92 µM); in assay [2] it was 0.011 µg/mL (≈ 0.0276 µM); in assay [3], 0.045 µg/mL (≈ 0.113 µM); in assay [4] (Citrobacter freundii) it was 1.56 µg/mL (≈ 3.92 µM); in [5] (Enterobacter cloacae), 1.56 µg/mL (≈ 3.92 µM); in assay [6], 0.022 µg/mL (≈ 0.0552 µM). Besides, the results for the MIC in [7], in assay [8] (Escherichia coli) and in [9] were 1.56 µg/mL (≈ 3.92 µM), 1.56 µg/mL (≈ 3.92 µM) and 0.78 µg/mL (≈ 1.96 µM), respectively.

For `CO[C@@]1(NC(=O)C(C(=O)O)c2ccc(O)cc2)C(=O)N2C(C(=O)O)=C(CSc3nnnn3C)CO[C@@H]21` (stereo partly shown) [Moxalactam, reference compound], the MIC worked out at 0.78 µg/mL (≈ 1.5 µM) in assay [1] (setting [11]); 2.5 µg/mL (≈ 4.8 µM) in assay [2]; 0.31 µg/mL (≈ 0.596 µM) in assay [3]; 3.12 µg/mL (≈ 5.99 µM) in [5] (setting [12]); 0.31 µg/mL (≈ 0.596 µM) in assay [6]; 0.15 µg/mL (≈ 0.288 µM) in assay [7]. Also, the MIC in [8] (setting [13]) and in assay [9] was 2.5 µg/mL (≈ 4.8 µM) each time.

On to `C[C@@H](O)[C@H]1C(=O)N2C(C(=O)[O-])=C(SCC[n+]3ccccc3)S[C@H]12` [Compound 1, (5R,6S)-6-[(1R)-hydroxyethyl]-2-(2-pyridinioethylthio) penem-3-carboxylate], for which the MIC in assay [1] (setting [11]) is 0.78 µg/mL (≈ 2.21 µM); in assay [2], at most 0.005 µg/mL; in assay [10] it was 9.92 µg/mL (≈ 28.1 µM); in [3] it was 0.222 µg/mL (≈ 0.63 µM); in assay [4] (Citrobacter freundii ATCC 8090, read-out: MIC) it was 0.78 µg/mL (≈ 2.21 µM); in assay [5] (setting [12]) it was 0.78 µg/mL (≈ 2.21 µM). Also, the MIC was determined as 0.011 µg/mL (≈ 0.0312 µM) in [6]; 0.39 µg/mL (≈ 1.11 µM) in [7]; 0.78 µg/mL (≈ 2.21 µM) in the assay on Acinobacter; 0.78 µg/mL (≈ 2.21 µM) in assay [8] (setting [13]); 0.39 µg/mL (≈ 1.11 µM) in assay [9].
